Data on 15 compounds can be found in patent US9856225B2, “Substituted phenazines as antimicrobial agents” (University of Florida Research Foundation, Incorporated, priority 2013, dated 2018).

Values joined by “and” are separate entries in the source; they are usually repeats but may differ in a detail not shown here. Equal entries are not always repeated. Where two headings read alike, the source gives them in different places. Some results are limits rather than exact numbers.

One may read the MIC as the least concentration at which growth counts as inhibited. For orientation: IC50 means the point on the concentration scale where inhibition reaches its midpoint. As a reminder, the inhibition is the drop in the measured response relative to a control, in per cent.

Holding throughout (type): cell-based
Assay [1] relates to Pseudomonas aeruginosa (PAO1). As to the kind of experiment: MIC broth microdilution (CLSI), Luria Broth. How it is done: (§1) Antibiotic Susceptibility Tests (MIC Assay Protocol). The minimum inhibitory concentration (MIC) for each compound described herein was determined by the broth microdilution method as recommended by the Clinical and Laboratory Standards Institute (CLSI) (Clinical and Laboratory Standards Institute. 2009. Methods for dilution antimicrobial susceptibility tests for bacteria that grow aerobically; approved standard, eighth edition (M7-A8)). In a 96-well plate, eleven two-fold serial dilutions of each compound were made in a final volume of 100 μL Luria Broth (one column served as a blank; see the MIC assay described herein). Each well was inoculated with 10^5 bacterial cells at the initial time of incubation, prepared from a fresh log phase culture (OD600 of 0.5). […] The concentration range tested for each compound during this study was 0.10 to 100 μM. DMSO served as the vehicle and negative control in each microdilution MIC assay. DMSO was serially diluted at the same concentration as the compounds with a top concentration of 1% v/v. Bacterial strains used: Staphylococcus aureus (ATCC 25923), Staphylococcus epidermidis (ATCC 12228) and Pseudomonas aeruginosa (PAO1). Kanamycin was used as a positive control against Staphylococcus aureus and Staphylococcus epidermidis.
Background: In broth dilution the organism is exposed to a series of concentrations in liquid medium.

Assay [2] has as its system Staphylococcus aureus (ATCC 25923). The assay can be described thus: MIC broth microdilution (CLSI), Luria Broth. Particulars: Staphylococcus aureus. How it is done:
as §1

Assay [3] has as its system Staphylococcus epidermidis (ATCC 12228). As to the kind of experiment: MIC broth microdilution (CLSI), Luria Broth. How it is done: as §1
Assay [4] relates to Staphylococcus aureus (ATCC 25923) biofilm. As to the kind of experiment: Biofilm inhibition, crystal violet staining. To be noted: S. aureus ATCC 25923; for Phenotype: planktonic growth vs biofilm formation; for IC50: Staphylococcus aureus, ATCC25923, single replicate screen, read-out: Biofilm Inhibition IC50; for MIC/IC50 Biofilm: ratio of MIC to IC50 of biofilm inhibition. The arrangement: MIC/IC50 Biofilm: unit not given here. How it is done:
Biofilm Inhibition Protocol for S. aureus (ATCC 25923). A serial two-fold dilution of 2× bromophenazine small molecule concentration was made in 100 μL tryptic soy broth (TSB) medium with 0.5% glucose were delivered into 0.1% gelatin (Millipore) coated 96-well tissue culture plates. […] To each well, 100 μL of TSB with 0.5% glucose containing 2×10^6 CFU/mL Staphylococcus aureus cells, prepared from fresh culture (OD600 of 0.8), was added. The plates were incubated at 37° C. for 24 hours. The wells were gently rinsed by submerging the entire plates in a tub of cold, running tap water. The wells were then fixed with 200 μL methanol for 15 minutes. After the plates were air dried, the biofilms were stained with 100 μL of 1% crystal violet for 10 minutes. The plates were again rinsed with running water. After drying in air, quantitative assessment of biofilm formation was obtained by extracting the crystal violet associated with the remaining biofilm with 100 μL per well of the following bleaching solution (methanol:glacial acetic acid:water (v/v/v)=4:1:5). This bleaching solution dissolved the bound crystal violet and produced a violet-colored solution in each well. The intensity of coloration was determined by measuring the absorbance at 540 nm.

Assay [5] has as its system Acinetobacter baumannii (ATCC 19606) biofilm. As to the kind of experiment: Biofilm inhibition, Mueller-Hinton broth, crystal violet. To be noted: A. baumannii ATCC 19606; for inhibition at 100 µM: Acinetobacter baumannii, ATCC19606, read-out: % Biofilm Inhibition at 100 μM. How it is done:
(§2) Biofilm Inhibition Protocol for A. baumannii (ATCC 19606): In a 96-well plate, ten two-fold serial dilutions of each compound tested were made from the highest concentration tested (100 μM) in a final volume of 100 μL in Mueller-Hinton broth (one column served as a blank). Each well was inoculated with ˜7×10^6 colony forming units per milliliter (corresponding to an OD600 of 0.01 prepared directly from an overnight culture). A lid was placed on the 96-well plate which was wrapped in suran wrap, placed in a humidifying chamber and incubated under static conditions at 37° C. for 24 hours. Following incubation, the media and planktonic bacteria were then removed from 96-well plates and the wells were then washed with water. The bacterial biofilms within the microtiter wells were stained with 200 μL of an aqueous 0.1% crystal violet solution that was allowed to stand for 10-20 minutes. The crystal violet stain was then removed, the wells were rinsed with water and dried. The crystal violet stain that remained on the inside of the wells (i.e., stained bacterial biofilm) on the inside of the wells was solubilized by the addition of 200 μL ethanol and absorbance was read at OD540 using a spectrophotometer. NOTE: The concentration range tested for each compound was 0.2-100 μM. Single data points for all compounds and DMSO controls were tested in two replicate rows in 96-well plates and corresponding absorbance readings were averaged for the quantification of planktonic growth and biofilm formation. Reported percent biofilm inhibition was determined by the comparison of compound treated wells (the average of the two replicate wells) versus vehicle control wells without compound following background subtraction (i.e., an empty, untreated well) and reported from 2 to 4 independent overnight cultures. DMSO was serially diluted at the same concentration as test compounds with a top concentration of 1% v/v.
(§3) The bromophenazines were also evaluated against the Gram-negative bacterium Acinetobacter baumannii in order to identify biofilm modulating small molecules against this emerging pathogen. Acinetobacter baumannii is notorious for its ability to persist as bacterial biofilms on hospital surfaces, giving rise to many multidrug-resistant nosocomial infections. Clinical isolates of A. baumannii have been identified that are resistant to every class of antibiotic clinically used. The bromophenazines were evaluated against Acinetobacter baumannii ATCC 19606 in biofilm inhibition assays. Bromophenazines were allowed to incubate in 96-well plates with Acinetobacter baumannii (˜7×10^6 CFUmL^−1 by adjusting an overnight culture to an OD600˜0.01) for 24 hours at 37° C. using Mueller-Hinton broth followed by spectrophometer readings of each plate to evaluate planktonic growth (OD600) and biofilm formation (OD540 after crystal violet stain of biofilms inside microtiter wells). […] This biofilm inhibition with activation of planktonic growth activity was dose-dependent with bromophenazine 17a (see FIG. 20).

Assay [6] relates to Acinetobacter baumannii (ATCC 19606). As to the kind of experiment: Planktonic growth (OD600) in biofilm inhibition assay. Particulars: for inhibition of growth at 100 µM: Acinetobacter baumannii, ATCC19606, 24 h, A. baumannii ATCC 19606, * = no growth inhibition at 200 μM, read-out: % Growth Inhibition at 100 μM. How it is done: as §2, with “Each” for “Biofilm Inhibition Protocol for A. baumannii (ATCC 19606): In a 96-well plate, ten two-fold serial dilutions of each compound tested were made from the highest concentration tested (100 μM) in a final volume of 100 μL in Mueller-Hinton broth (one column served as a blank). Each”, “NOTE: The concentration range tested for each compound was 0.2-100 μM.” left out
as §3

Where [7] appears, read: Table 1, PAO1, read-out: Pseudomonas aeruginosa MIC.
Setting [8] is: ATCC25923, Table 1, ATCC 25923, range tested 0.10 to 100 μM, read-out: Staphylococcus aureus MIC.
Where [9] appears, read: ATCC25923, Table 1, ATCC 25923, read-out: Staphylococcus aureus MIC.
Where [10] appears, read: ATCC12228, Table 1, ATCC 12228, read-out: Staphylococcus epidermidis MIC.
[11] abbreviates: ATCC25923, Table 2, S. aureus ATCC 25923, Luria Broth, read-out: MIC.

Turning to `Oc1cccc2nc3ccccc3nc12` [Compound 2, 1-Hydroxyphenazine, reference compound], the MIC in assay [1] (PAO1, read-out: Pseudomonas aeruginosa MIC) is greater than 100 µM; in assay [2] (ATCC25923, read-out: Staphylococcus aureus MIC), > 100 µM and > 19.7 µg/mL; in assay [3] (ATCC12228, read-out: Staphylococcus epidermidis MIC) it was > 100 µM and > 19.7 µg/mL.
As to `O=C(O)c1cccc2nc3ccccc3nc12` [Compound 3, Phenazine-1-carboxylic acid, reference compound], the MIC in assay [1] (setting [7]) is greater than 100 µM; in assay [2] (setting [8]) it was greater than 100 µM; in assay [2] (setting [9]), greater than 22.5 µg/mL; in assay [3] (setting [10]), > 100 µM and > 22.5 µg/mL.
`NC(=O)c1cccc2nc3ccccc3nc12` [Compound 4, Phenazine-1-carboxamide, reference compound]: the MIC in assay [1] (setting [7]) was greater than 100 µM; in assay [2] (setting [8]) it was greater than 100 µM; in assay [2] (setting [9]), greater than 22.4 µg/mL; in assay [3] (setting [10]) it was > 100 µM and > 22.4 µg/mL.
In the case of `Oc1c(Br)ccc2nc3ccccc3nc12` [Compound 5, 2-Bromophenazin-1-ol, reference compound], the minimum inhibitory concentration (MIC) was greater than 100 µM in assay [1] (setting [7]); 6.25 µM in assay [2] (setting [8]); 1.72 µg/mL in assay [2] (setting [9]); 6.25 µM and 1.72 µg/mL in assay [3] (setting [10]).
`Nc1cccc2nc3cc(Br)ccc3nc12` [Compound 14, 7-Bromophenazin-1-amine]: the minimum inhibitory concentration (MIC) is greater than 100 µM in assay [1] (setting [7]), greater than 100 µM in assay [2] (setting [8]) and greater than 27.4 µg/mL in assay [2] (setting [9]).
For the compound `NC(=O)c1cccc2nc3cc(Br)ccc3nc12` [Compound 15, 7-Bromophenazine-1-carboxamide], the values for the MIC in assay [1] (setting [7]), in assay [2] (setting [8]) and in assay [2] (setting [9]) were greater than 100 µM, greater than 100 µM and greater than 30.2 µg/mL, respectively.
For `Nc1c(Br)cc(Br)c2nc3cc(Br)ccc3nc12` [Compound 16, 2,4,7-Tribromophenazin-1-amine], the minimum inhibitory concentration (MIC) is greater than 100 µM in assay [1] (setting [7]), greater than 100 µM in assay [2] (setting [8]) and greater than 43.2 µg/mL in assay [2] (setting [9]).
Take `Nc1c(Br)cc(Br)c2nc3ccccc3nc12` [Compound 17, 2,4-Dibromophenazin-1-amine]: the MIC in assay [1] (setting [7]) is greater than 100 µM; in assay [2] (setting [8]), greater than 100 µM; in assay [2] (setting [9]), greater than 35.4 µg/mL.
As for `COc1ccc(Br)c2nc3ccccc3nc12` [Compound 19, 1-Bromo-4-methoxyphenazine], the minimal inhibitory concentration (MIC) in assay [1] (setting [7]) was greater than 100 µM; in assay [2] (setting [8]), greater than 100 µM; in assay [2] (setting [9]) it was greater than 28.9 µg/mL.
For the compound `Oc1ccc(Br)c2nc3ccccc3nc12` [Compound 20, 4-Bromophenazin-1-ol], the MIC in assay [1] (setting [7]) is greater than 100 µM; in assay [2] (setting [8]) it was greater than 100 µM; in assay [2] (setting [9]) it was greater than 27.5 µg/mL.
On to `CC(C)C(=O)Oc1c(Br)cc(Br)c2nc3ccccc3nc12` [Compound 22, 2,4-Dibromophenazin-1-yl isobutyrate], for which the MIC in assay [2] (setting [8]) was 1.56 µM; in assay [2] (setting [9]), 0.66 µg/mL; in assay [2] (setting [11]) it was 1.56 µM; in assay [3] (setting [10]), 1.56 µM and 0.66 µg/mL. Also, in assay [4], the Phenotype result is recorded as “antibacterial”. In assay [4], the IC50 amounted to 990 nM. Besides, in assay [4], the “MIC/IC50 Biofilm” value came out at 1.6. Moreover, the inhibition at 100 µM in assay [5] came to 26 ± 12%. For the same compound, the inhibition of growth at 100 µM in assay [6] (100 μM) was -13 ± 5%.
On to `O=C(Oc1c(Br)cc(Br)c2nc3ccccc3nc12)c1cccc(Br)c1` [Compound 25, 2,4-Dibromophenazin-1-yl 3-bromobenzoate], for which the MIC in assay [2] (setting [8]) is 3.13 µM; in assay [2] (setting [9]) it was 1.68 µg/mL; in assay [2] (setting [11]), 3.13 µM; in assay [3] (setting [10]), 3.13 µM and 1.68 µg/mL. For the same compound, in assay [4], the Phenotype result is on record as “antibacterial”. The concentration for half-maximal inhibition (IC50) in assay [4] was found to be 930 nM. For the same compound, the “MIC/IC50 Biofilm” value in assay [4] is reported as 3.4. In addition, in assay [5], the inhibition at 100 µM was 49 ± 6%. Besides, the “increase in planktonic growth” value in assay [6] (100 μM, OD600) is on record as roughly 15%. The “planktonic growth inhibition at 200 μM” value in assay [6] (200 μM) was “did not inhibit planktonic growth”. Also, the inhibition of growth at 100 µM in assay [6] (100 μM) is -18 ± 4%.
Consider `O=C(Oc1c(Br)cc(Br)c2nc3ccccc3nc12)N(c1ccccc1)c1ccccc1` [Compound 26a], for which, in assay [2] (setting [11]), the minimal inhibitory concentration (MIC) is greater than 100 µM. In assay [4], the Phenotype entry is “inactive” and the half-inhibitory concentration (IC50) was greater than 100000 nM. Also, in assay [5], the inhibition at 100 µM is 40 ± 2%. Further, the inhibition of growth at 100 µM in assay [6] (100 μM) was -22 ± 8%.
As for `CS(=O)(=O)Oc1c(Br)cc(Br)c2nc3ccccc3nc12` [Compound 29a], the MIC in assay [2] (setting [11]) is greater than 100 µM. The IC50 in assay [4] is greater than 100000 nM. In addition, in assay [5], the Phenotype entry is “inactive” and the inhibition at 100 µM was 1 ± 2%. Further, the inhibition of growth at 100 µM in assay [6] (100 μM) was 3 ± 3%.
As for `NC[C@H]1O[C@H](O[C@H]2[C@H](O)[C@@H](O[C@H]3O[C@H](CO)[C@@H](O)[C@H](N)[C@H]3O)[C@H](N)C[C@@H]2N)[C@H](O)[C@@H](O)[C@@H]1O` [Kanamycin, reference compound], the MIC in assay [2] (setting [8]) was 1.56 to 6.25 µM; in assay [2] (setting [9]), 0.76 to 3.03 µg/mL; in assay [3] (setting [10]) it was 0.78 µM to 1.56 µM and 0.38 µg/mL to 0.76 µg/mL.
